Measurements as given in patent publication US7604990B2, “Methods of regulating differentiation in stem cells” (ES Cell International Pte Ltd., priority 2002, dated 2009).

Assays:
Format in all cases: cell-based, human
[1] = tested on: ERKs (Erk1 and Erk2) in hES cells; experiment: ERK phosphorylation Western blot in hES cells (Example 1); details: hES cells, 5 min; S1P 10 μM, LPA 50 M, PDGF 20 ng/ml
Procedure: RT-PCR for LPL receptors (A, B), PDGFR-[…] (alpha) and PDGFR-[…] (beta) (C), SPK-1 and SPK-2 (D), with (+) or without (−) RT. Immunostaining of hES cells with Hoechst 33342 (E, H), PDGFR-[…] (F) or PDGFR-[…] (I) and GCTM-2 (G, J) antibodies. S1P, LPA and PDGF stimulate ERKs phosphorylation in hES cells. (K) Western blots experiment were performed using protein lysate from hES cells. Cells were pre-treated or not with U0126 (30 μM, 1 hr) and incubated for 5 min in the absence (C, control) or presence of S1P (S, 10 μM), LPA (L, […]) or PDGF (P, 20 ng/ml). The phosphorylation of Erk1 and Erk2 (P-Erk1 and P-Erk2) was assessed by immunoblotting with a polyclonal anti-active MAP kinase as described in Materials and Methods. After a stripping procedure, the same blots were reprobed with a monoclonal anti-MAP kinase, allowed the detection of Erk1 and Erk2.
hES-3 cells plated without MEF for 24 hrs were depleted of serum for a further 18 hrs. Cells pre-treated or not with U0126 (Sigma, 30 μM, 1 hr), were incubated in the presence of the different agents for 5 min and were lysed by removal of the supernatants and addition of a reducing loading buffer containing 1 mM sodium orthovanadate (Sigma). Protein lysates (approx. 80 μg) were separated by SDS-polyacrylamide gel electrophoresis (10% polyacrylamide, w/v), transferred to nitrocellulose (Hybond-nitrocellulose, Amersham) and immunoblotting was carried out using rabbit polyclonal anti-active mitogen-activated protein (MAPK) antibodies raised against a dually phosphorylated MAPK peptide (Promega, Madison, Wis., USA). Peroxidase-coupled secondary antibody (Dako) was detected by exposure of autoradiographic films in the presence of a chemiluminescent detection reagent (ECL, Amersham). Stripping of antibodies was achieved and membranes were then reprobed with rabbit polyclonal anti-ERK1/2 antibodies (Promega), and then with peroxidase-coupled secondary antibodies (Dako). Membranes probed with either rabbit polyclonal anti-active p38 (Promega) or rabbit polyclonal anti-active JNK (Promega) antibodies were also performed, using the same procedure as described above.

hES cells [2] = experiment: Spontaneous differentiation of hES colonies on MEF in serum-free medium, morphology (Example 1); details: 8 days serum-free on MEF; S1P 10 μM, PDGF 20 ng/ml, LPA up to 50 μM
Procedure: (A) hES cells grown with MEF, before the depletion of serum from the medium. (B, C, D, E) hES cells grown without serum after 8 days, in the absence (B) or in the presence of S1P (10 μM) (C), PDGF (20 ng/ml) (D), S1P (10 μM) plus PDGF (20 ng/ml) (E). (F) hES cells grown without serum, in the presence or in the absence (control) of S1P (10 μM), PDGF (20 ng/ml), S1P (10 μM) plus PDGF (20 ng/ml). In A-E, data are representative of at least 3 independent experiments. In F, data expressed as percentages of alkaline phosphatase activity in absence of serum for eight days (% of control), are the means±SEM of at least 2 independent experiments, each run in triplicate.
hES-3 cells were cultured as previously described^1. The serum-free culture medium consisted of DMEM (without sodium pyruvate, glucose 4500 mg/l, Invitrogen, Mount Waverley, VIC, Australia) supplemented with insulin/transferrin/selenium 1%, β-mercaptoethanol 0.1 mM, NEAA 1%, glutamine 2 mM, Hepes 25 mM, penicillin 50 U/ml and streptomycin […] (all from Invitrogen). Medium was changed every 2 days and cells were passaged every week. S1P and dihydro-S1P were obtained from Biomol (Plymouth Meeting, Pa., USA) and were dissolved in methanol. LPA was obtained from Sigma (Castle Hill, NSW, Australia) and was dissolved in ethanol. Extemporaneous dilutions of all lipids were made in water containing 0.1% fatty acid-free bovine serum albumin (BSA) (Sigma). Human PDGF-AB, PDGF-AA, PDGF-BB were from PreproTech Inc. (Rocky Hill, N.J., USA).

hES cells [3] = experiment: Spontaneous differentiation of hES colonies on MEF in serum-free medium, morphology (Example 2); details: 2 weeks serum-free on MEF; S1P 10 μM, PDGF-AB 20 ng/ml, LPA up to 50 μM
Procedure: hES-3 cells were cultured as previously described^1. The serum-free culture medium consisted of DMEM (without sodium pyruvate, glucose 4500 mg/l, Invitrogen, Mount Waverley, VIC, Australia) supplemented with insulin/transferrin/selenium 1%, β-mercaptoethanol 0.1 mM, NEAA 1%, glutamine 2 mM, Hepes 25 mM, penicillin 50 U/ml and streptomycin […] (all from Invitrogen). Media was changed every 2 days and cells were passaged every week S1P and dihydro-S1P were obtained from Biomol (Plymouth Meeting, Pa., USA). LPA was obtained from Sigma (Castle Hill, NSW, Australia). Extemporaneous dilutions of all lipids were made in water containing 0.1% fatty acid-free bovine serum albumin (BSA) (Sigma). […] Human PDGF-AB, PDGF-AA, PDGF-BB were from Prepro Tech Inc. (Rocky Hill, N.J., USA) and were used at 20 ng/ml.

hES cells [4] = experiment: ELISA-based GCTM-2 quantification in hES cells (Example 2); details: treated 2 weeks, serum-free; n=3
Procedure: hES-3 cells were cultured as previously described^1. The serum-free culture medium consisted of DMEM (without sodium pyruvate, glucose 4500 mg/l, Invitrogen, Mount Waverley, VIC, Australia) supplemented with insulin/transferrin/selenium 1%, β-mercaptoethanol 0.1 mM, NEAA 1%, glutamine 2 mM, Hepes 25 mM, penicillin 50 U/ml and streptomycin […] (all from Invitrogen). Media was changed every 2 days and cells were passaged every week S1P and dihydro-S1P were obtained from Biomol (Plymouth Meeting, Pa., USA). LPA was obtained from Sigma (Castle Hill, NSW, Australia). Extemporaneous dilutions of all lipids were made in water containing 0.1% fatty acid-free bovine serum albumin (BSA) (Sigma). S1P and dihydro-S1P were used at […]. Human PDGF-AB, PDGF-AA, PDGF-BB were from Prepro Tech Inc. (Rocky Hill, N.J., USA) and were used at 20 ng/ml.
Cells were fixed in 100% ethanol and immunostained with GCTM-2 followed by alkaline phosphatase-coupled secondary antibodies (Dako). Alkaline phosphatase activity was detected by adding a solution of 4-nitrophenyl phosphate (Roche), and the concentration of the reaction product was determined by reading the optical density (OD) at 405 nm. In order to validate the technique as an accurate indicator of the proportion of GCTM-2 positive cells, standard curves were carried out with the embryonal carcinoma cell line GCT27C4, known to express GCTM-2^20.

Which results are given for PDGF?
phosphorylation of ERKs [1]: stimulated the phosphorylation of ERKs; colony growth/morphology (spontaneous differentiation) (hES cells [2]): flatter and less differentiated; size or morphology of hES cell colonies (spontaneous differentiation) (hES cells [3]): flatter and less differentiated; more GCTM2+ than the controls (hES cells [4]): 50.3±18.4%

Which “phosphorylation of ERKs” value [1] does the source give for `CCCCCCCCCCCCC/C=C/[C@@H](O)[C@@H](N)COP(=O)(O)O` [S1P, Sphingosine-1-phosphate] here?
The value was “stimulated the phosphorylation of ERKs”.

What about the “colony growth/morphology (spontaneous differentiation)” value (hES cells [2]) of the same compound?
Its value is “flatter and less differentiated”.

What about the “size or morphology of hES cell colonies (spontaneous differentiation)” value (hES cells [3]) of the same compound?
Its value is “flatter and less differentiated”.

What about the “more GCTM2+ than the controls” value (hES cells [4]) of the same compound?
The value was 18.0±17.0%.
